Test [1] has as its target muscarinic receptors (cerebral cortex). Description: Receptor binding test in vitro, cerebral cortex (3H-N-methylscopolamine displacement). Further details: species or system rat (male Sprague-Dawley). Conditions: 0.3 nanomolar 3H-NMS, 30° C., 45 minutes, pH 7.4. Here is the method: (§1) The organs were donated by male Sprague-Dawley rats weighing 180-220 g. After the heart and submandibular gland and cerebral cortex had been removed, all other steps were carried out in ice cold Hepes HCl buffer (pH 7.4; 100 millimolar NaCl, 10 millimolar MgCl2). The whole heart was cut up with scissors. All the organs were then homogenised in a Potter apparatus.
(§2) For the binding test the homogenised organs were diluted as follows:
(§3) The homogenised organs were incubated at a certain concentration of the radioaligned and at a series of concentrations of the non-radioactive test substances in an Eppendorf centrifuge tube at 30° C. Incubation lasted 45 minutes. The radioligand used was 0.3 nanomolar ^3 H-N-methylscopolamine (^3 H-NMS). Incubation was ended by the addition of ice cold buffer followed by vacuum filtration. The filters were rinsed with cold buffer and their radioactivity was determined. It represents the sum of specific and non-specific binding of ^3 H-NMS. The proportion of non-specific binding was defined as the radioactivity which was bound in the presence of 1 micromolar quinuclidinylbenzylate. Each measurement was taken four times. The IC50 values of the non-labelled test substances were determined graphically. They represent that concentration of test substance at which the specific binding of ^3 H-NMS to the muscarinic receptors in the various organs was inhibited by 50%. […] PG,17

The test system of test [2] is vagal bradycardia (M2). As to the kind of experiment: M1/M2 selectivity in the rat: reduction of vagal bradycardia (M2). Type of test: in vivo, rat (male THOM). Conditions: iv, 5 minutes before vagus stimulation, 50% reduction of vagal bradycardia (M2), read-out: log ED50, Heart (converted). On the procedure:
(§4) The dosage of the substances which reduced either the vagal bradycardia (M2) or the rise in blood pressure (M1) by 50% was determined graphically. For the results see Table II.

In test [3] the target is T1, muscarinic receptors (heart) (Rattus norvegicus, UniProt P10980).
T1 construct: The whole heart was cut up with scissors; All the organs were then homogenised in a Potter apparatus; from tissue; host or cells: rat whole heart homogenate
T1 sequence (P10980 1-466): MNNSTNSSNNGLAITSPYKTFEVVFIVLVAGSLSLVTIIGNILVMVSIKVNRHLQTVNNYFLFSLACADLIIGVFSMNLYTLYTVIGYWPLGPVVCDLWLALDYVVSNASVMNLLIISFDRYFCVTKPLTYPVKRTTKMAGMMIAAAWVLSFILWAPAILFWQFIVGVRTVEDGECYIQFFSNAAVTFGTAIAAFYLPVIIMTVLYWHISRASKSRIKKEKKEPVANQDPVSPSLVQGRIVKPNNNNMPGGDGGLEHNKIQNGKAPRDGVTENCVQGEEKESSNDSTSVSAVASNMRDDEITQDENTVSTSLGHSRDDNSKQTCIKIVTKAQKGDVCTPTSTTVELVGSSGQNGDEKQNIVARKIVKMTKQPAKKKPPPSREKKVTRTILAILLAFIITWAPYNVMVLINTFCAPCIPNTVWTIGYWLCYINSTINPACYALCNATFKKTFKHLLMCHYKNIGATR
Description: Receptor binding test in vitro, heart (3H-N-methylscopolamine displacement). Also on record: species or system rat (male Sprague-Dawley). To be noted: whole heart; 0.3 nanomolar 3H-NMS; 30° C.; 45 minutes; pH 7.4. Here is the method: as §1, §2, §3

Test [4] concerns acetylcholine activity on heart rate. Description: Inhibition of acetylcholine activity on heart rate in the guinea pig. Type of test: in vivo. To be noted: Cavia porcellus, iv, 5 min; anaesthetised guinea pig; 5 minutes after test substance; 10 microgram/kg acetylcholine i.v. and i.a.; heart rate by ECG; read-out: log ED50, Heart (converted). Here is the method:
(§5) 5 minutes after the administration of the test substance, 10 microgram/kg of acetylcholine were simultaneously injected intravenously and intra-arterially into anaesthetised guinea pigs. The heart rate was recorded directly by extracorporeal derivation of the ECG, the expiration resistance according to Konzett-Rossler and contraction of the exposed bladder. In order to determine the inhibition of the acetylcholine activity on the organs under investigation, dosage/activity curves were recorded and from them -log ED50 values were determined. […] The following compounds for example were investigated as described above: […]

The target in test [5] is T2, muscarinic receptors (submandibular gland) (Rattus norvegicus, UniProt P08483).
T2 construct: All the organs were then homogenised in a Potter apparatus; from tissue; host or cells: rat submandibular gland homogenate
T2 sequence (P08483 whole entry): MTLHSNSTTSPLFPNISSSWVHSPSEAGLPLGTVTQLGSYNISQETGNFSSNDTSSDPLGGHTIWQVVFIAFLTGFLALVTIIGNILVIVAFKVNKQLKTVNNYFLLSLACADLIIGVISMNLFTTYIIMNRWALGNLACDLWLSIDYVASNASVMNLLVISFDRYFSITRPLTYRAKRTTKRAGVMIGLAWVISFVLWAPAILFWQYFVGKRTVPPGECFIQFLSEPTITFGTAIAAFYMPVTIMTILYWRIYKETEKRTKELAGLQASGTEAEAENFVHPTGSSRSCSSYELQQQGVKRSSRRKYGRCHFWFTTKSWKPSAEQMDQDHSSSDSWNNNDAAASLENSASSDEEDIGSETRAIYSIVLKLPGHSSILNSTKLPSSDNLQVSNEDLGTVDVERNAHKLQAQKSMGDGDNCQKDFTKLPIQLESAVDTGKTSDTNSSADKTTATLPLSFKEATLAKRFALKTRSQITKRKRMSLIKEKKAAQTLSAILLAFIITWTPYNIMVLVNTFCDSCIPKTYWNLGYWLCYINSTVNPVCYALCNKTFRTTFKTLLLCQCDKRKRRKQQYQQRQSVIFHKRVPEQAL
Description: Receptor binding test in vitro, submandibular gland (3H-N-methylscopolamine displacement). Further details: species or system rat (male Sprague-Dawley). Conditions: 0.3 nanomolar 3H-NMS, 30° C., 45 minutes, pH 7.4. On the procedure: as §1, §2, §3

For test [6], the system named is acetylcholine activity on bronchi. Description: Inhibition of acetylcholine activity on the bronchi in the guinea pig. Type of test: in vivo. Conditions: Cavia porcellus, iv, 5 min; anaesthetised guinea pig; 5 minutes after test substance; 10 microgram/kg acetylcholine i.v. and i.a.; expiration resistance (Konzett-Rossler); read-out: log ED50, Bronchi (converted). Here is the method:
as §5

Test [7] relates to secretion of saliva. As to the kind of experiment: Salivation-inhibiting effect in the rat (pilocarpine). Conditions: iv; urethane-anaesthetised rat; i.v.; 2 mg/kg pilocarpine s.c.; 50% reduction of saliva volume; read-out: log ED50, Salivation (converted). Type of test: in vivo, rat (male THOM). Here is the method:
The secretion of saliva was initiated by subcutaneous administration of 2 mg/kg of pilocarpine. The saliva was absorbed with blotting paper and the surface area covered was measured every 5 minutes by planimetry. The dosage of the substance which reduced the volume of saliva by 50% was determined graphically. For the results see Table II.

Test [8] relates to acetylcholine activity on bladder. As to the kind of experiment: Inhibition of acetylcholine activity on the bladder in the guinea pig. The format is in vivo. To be noted: Cavia porcellus, iv, 5 min; anaesthetised guinea pig; 5 minutes after test substance; 10 microgram/kg acetylcholine i.v. and i.a.; contraction of exposed bladder; read-out: log ED50, Bladder (converted). Here is the method: as §5

The test system of test [9] is rise in blood pressure (M1). As to the kind of experiment: M1/M2 selectivity in the rat: reduction of rise in blood pressure caused by McN-A-343 (M1). To be noted: iv, 5 minutes before 0.3 mg/kg McN-A-343 i.v., 50% reduction of rise in blood pressure (M1), read-out: log ED50, Blood pressure (converted). The format is in vivo, rat (male THOM). Here is the method:
as §4

Turning to `Cc1scc2c1N(C(=O)CN1CCC(CCCN3CCCCC3)CC1)c1ccccc1NC2=O` [A], the IC50 was found to be 60 nM in [1], 5 nM in [3] and 200 nM in [5]. Further, the median effective dose (ED50) is 0.0724 µmol/kg in test [2]; 0.123 µmol/kg in test [4]; 0.282 µmol/kg in [6]; 6.31 µmol/kg in test [7]; 2.75 µmol/kg in test [8]; 1.51 µmol/kg in test [9].

Turning to `O=C1Nc2cccnc2N(C(=O)CN2CCC(CCCN3CCCCC3)CC2)c2ccccc21` [B], the IC50 was determined as 200 nM in [1], 20 nM in test [3] and 550 nM in test [5]. Further, the ED50 in test [4] was 0.123 µmol/kg; in test [6] it was 0.468 µmol/kg; in [8], 1.82 µmol/kg.

Consider `O=C1Nc2cccnc2N(C(=O)CN2CCC(CCCCN3CCCCC3)CC2)c2ccccc21` [C], for which the IC50 in [1] was 50 nM; in [3], 9 nM; in test [5] it was 200 nM. Further, the ED50 in [2] is 0.115 µmol/kg; in test [4], 0.0871 µmol/kg; in test [6], 0.661 µmol/kg; in test [7], > 31.6 µmol/kg; in [8], 2.63 µmol/kg; in [9], 3.8 µmol/kg.

As for `CN1CCC(CCCC2CCN(CC(=O)N3c4ccccc4C(=O)Nc4cccnc43)CC2)CC1` [D], the IC50 in [1] was determined as 500 nM; in test [3], 50 nM; in [5], 1500 nM. Moreover, the results for the ED50 in test [4], in [6] and in [8] were 0.355 µmol/kg, 0.851 µmol/kg and > 10 µmol/kg, respectively.

Regarding `CN1CCN(CC(=O)N2c3ccccc3C(=O)Nc3cccnc32)CC1` [F], the figures for the ED50 in [4], in test [6] and in test [8] were 1.41 µmol/kg, 0.269 µmol/kg and 4.37 µmol/kg, respectively.

In the case of `CN1[C@@H]2CC[C@H]1CC(OC(=O)C(CO)c1ccccc1)C2` (stereo partly drawn) [G], the ED50 in test [2] was 0.0115 µmol/kg; in [4] it was 0.02 µmol/kg; in test [8], 0.0933 µmol/kg; in test [9] it was 0.0457 µmol/kg.

For the compound `CCN(CC)CC1CCCCN1CC(=O)N1c2ccccc2C(=O)Nc2cccnc21` (stereo not drawn) [Substance E, 11-[[2-[(diethylamino)methyl]-1-piperidinyl]acetyl]-5,11-dihydro-6H-pyrido [2,3-b][1,4]benzodiazepin-6-one, reference compound], the ED50 is 0.38 µmol/kg in test [2]; 1.45 µmol/kg in [4]; 2.63 µmol/kg in test [6]; 10 µmol/kg in [7]; 18.6 µmol/kg in test [8].

A word on the IC50: it is the concentration that gives 50% inhibition. Higher therefore signals weaker potency in that assay. A word on the ED50: it is the dose that gives a 50% effect, or the effect in half of the subjects.

Values taken from US5175158A, “Condensed diazepinones, processes for preparing them and pharmaceutical compositions containing these compounds” (Dr. Karl Thomae, GmbH, priority 1987, dated 1992).
